Data from patent US20240109879A1, “BENZIMIDAZOLE COMPOUND AND APPLICATION THEREOF” (Medshine Discovery Inc., priority 2020, published 2024).
One block for each compound: values may come before it.

Columns and labels:
[1] = target: CBP (Homo sapiens (Human), UniProt Q92793); test: Assay of CBP protein activity (HTRF, BRD with acetylated Histone H4 peptide ligand); format: binding
Method: (§1) Assay Example 1: Assay of p300 and CBP Protein Activity
(§2) Reaction buffer: 25 mM HEPES, pH 7.5, 25 mM NaCl, 0.025% CHAPS, 0.025% BSA, 0.5% DMSO.
(§3) Standard Reaction Conditions:
(§4) 5 nM p300-GST, 50 nM peptide ligand.
(§5) Reaction Procedure: • 1. 2.5×BRD was added to the wells of a reaction plate, except for control wells without BRD to which buffer was added instead. • 2. Compounds in 100% DMSO were delivered into the BRD mixture by acoustic technology (Echo550; nanoliter range). The plate was spun down. The mixture was incubated at room temperature for 30 min. • 3. 5×peptide ligand was delivered. The plate was spun down. The mixture was incubated at room temperature for 10 min. • 4. 5×HTRF detection mixture was delivered. The plate was spun down and the mixture was incubated in the dark for 2 h. • 5. A measurement of HTRF was performed with an Envision reader (Ex/Em=320/615, 665 nm). • 6. A HTRF ratio was calculated as follows: [em 665 nm/em 615 nm]*10000.
(§6) The background-subtracted signal (no protein as background) was converted to % bound relative to the DMSO control. Data were analyzed using GraphPad Prism 4 with “sigmoidal dose-response (variable slope)”; and a 4-parameter analysis was performed using Hill slope.
(§7) Constraints: • Bottom=Constant equal to 0 • Top=Must be less than 120

[2] = Pharmacokinetic study in CD-1 mice (intravenous injection and oral gavage); format: in vivo; conditions: male CD-1 mice
Source text: Assay Example 2: Pharmacokinetic Study of Compounds of the Present Disclosure
CD-1 mice (male, 5-6 weeks old, Shanghai Family Planning Research Institute)
Injection: To assay pharmacokinetic characteristics of rodents after intravenous injection administration of compounds by a standard protocol. In the assay, candidate compounds were formulated into clear solutions, and administered to mice as a single intravenous injection. The vehicle for the intravenous injection was a mixed vehicle formulated with 5% of dimethyl sulfoxide and 95% of 10% hydroxypropyl β-cyclodextrin. In this assay, two male CD-1 mice were used for intravenous injection administration at a dose of 0.5 mg/kg. Plasma samples were collected at 0.083, 0.25, 0.5, 1, 2, 4, 8 and 24 h after administration. Whole blood samples were collected within 24 hours, and centrifuged at 3000 g for 15 minutes. The supernatants were separated to obtain plasma samples. To the plasma samples was added 20 times volume of acetonitrile solution containing internal standard to precipitate protein. The mixtures were vortexed and centrifuged. The supernatants were taken for injection. Plasma drug concentration was quantitatively analyzed by LC-MS/MS analysis method, and pharmacokinetic parameters (such as clearance (CL), half-life (T1/2), […] (Vdss), area under the drug-time curve (AUC0-last), etc.) were calculated.
Oral: To assay pharmacokinetic characteristics of rodents after oral administration of compounds by a standard protocol. In the assay, candidate compounds were formulated into homogeneous opaque suspensions, and given to the mice for a single oral administration. The vehicle for the oral administration was a mixed vehicle formulated with 5% of dimethyl sulfoxide and 95% of 0.5% methylcellulose. In this assay, two male CD-1 mice were used for oral gavage administration at a dose of 3 mg/kg. Plasma samples were collected at 0.25, 0.5, 1, 2, 4, 8 and 24 h after administration. Whole blood samples were collected within 24 hours, and centrifuged at 3000 g for 15 minutes. The supernatants were separated to obtain plasma samples. To the plasma samples was added 20 times volume of acetonitrile solution containing internal standard to precipitate protein. The mixtures were vortexed and centrifuged. The supernatants were taken for injection. Plasma drug concentration was quantitatively analyzed by LC-MS/MS analysis method, and pharmacokinetic parameters (such as peak concentration (Cmax), half-life (T1/2), area under the drug-time curve (AUC0-last), etc.) were calculated.

[3] = target: p300 (Homo sapiens (Human), UniProt Q09472); test: Assay of p300 protein activity (HTRF, p300-GST with Histone H4 (1-21) K5/8/12/16Ac-GG-Biotin peptide ligand); format: binding; conditions: 5 nM p300-GST, 50 nM peptide ligand
Method: as §1, §2, §3, §4, §5, §6, §7

Sequence of p300 (Q09472 1049-1156): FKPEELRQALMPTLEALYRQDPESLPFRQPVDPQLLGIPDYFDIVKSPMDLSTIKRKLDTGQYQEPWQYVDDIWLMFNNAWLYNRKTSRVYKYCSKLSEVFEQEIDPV
Sequence of CBP (Q92793 1085-1192): as the sequence (Q09472 1049-1156) above, with S47N, I73V, Y93F, S98A counted along it

Structure (SMILES): COC1CCC(n2c([C@@H]3C[C@H]4C[C@H]4C(=O)N3c3ccc(F)c(F)c3)nc3cc(-c4c(C)noc4C)ccc32)CC1 (single isomer, unassigned) [Compound 3B]
IC50 [1]: 0.67 nM
Bioavailability F (%) ([2]; gavage 3 mg/kg vs intravenous 0.5 mg/kg): 64%
Area under curve (0-inf) AUC0-inf ([2]; gavage, 3 mg/kg): 2.606 µM·h
Area under curve (0-t) AUC0-last ([2]; gavage, 3 mg/kg): 2.577 µM·h
Time to peak Tmax ([2]; gavage, 3 mg/kg): 45 min
half-life T1/2 ([2]; gavage, 3 mg/kg): 67.2 min
Cmax ([2]; gavage, 3 mg/kg, read-out: Plasma drug concentration Cmax): 697 nM
Apparent distribution volume Vdss ([2]; intravenous, 0.5 mg/kg): 1.65 L/kg
Area under curve (0-inf) AUC0-inf ([2]; intravenous, 0.5 mg/kg): 0.676 µM·h
Area under curve (0-t) AUC0-last ([2]; intravenous, 0.5 mg/kg): 0.665 µM·h
Clearance Cl ([2]; intravenous, 0.5 mg/kg): 23.3 mL/min/kg
half-life T1/2 ([2]; intravenous, 0.5 mg/kg): 59.4 min
IC50 [3]: 2.88 nM

IC50 [3]: 11.3 nM
Structure (SMILES): COC1CCC(n2c([C@@H]3CN(C)C(=O)N3c3ccc(F)c(F)c3)nc3cc(-c4c(C)noc4C)ccc32)CC1 (some centres unmarked) [Compound 4A]

Structure (SMILES): COC1CCC(n2c([C@H]3C[C@@H]4C[C@@H]4C(=O)N3c3ccc(F)c(F)c3)nc3cc(-c4c(C)noc4C)ccc32)CC1 (single isomer, unassigned) [Compound 3C]
IC50 [3]: 14.1 nM

Structure (SMILES): Cc1noc(C)c1-c1ccc2c(c1)nc([C@H]1CCCC(=O)N1c1ccc(F)c(F)c1)n2C1CC2C(C1)C2(F)F (some centres unmarked) [Compound 2B]
IC50 [1]: 0.67 nM
IC50 [3]: 3.54 nM
